# Assay results as given in ChEMBL document CHEMBL1129362 (J Med Chem, 1996).
# Legend:
# [1] = molecular target: Cholecystokinin receptor (Homo sapiens) (UniProt P32239+P32238); assay: Selectivity ratio between IC50 values of CCK-A and CCK-B; type: protein assay
# [2] = molecular target: T1, Gastrin/cholecystokinin type B receptor (Homo sapiens, UniProt P32239); assay: Binding affinity against human Cholecystokinin type B receptor by displacement of [125I]CCK-8
# T1 sequence (P32239 whole entry): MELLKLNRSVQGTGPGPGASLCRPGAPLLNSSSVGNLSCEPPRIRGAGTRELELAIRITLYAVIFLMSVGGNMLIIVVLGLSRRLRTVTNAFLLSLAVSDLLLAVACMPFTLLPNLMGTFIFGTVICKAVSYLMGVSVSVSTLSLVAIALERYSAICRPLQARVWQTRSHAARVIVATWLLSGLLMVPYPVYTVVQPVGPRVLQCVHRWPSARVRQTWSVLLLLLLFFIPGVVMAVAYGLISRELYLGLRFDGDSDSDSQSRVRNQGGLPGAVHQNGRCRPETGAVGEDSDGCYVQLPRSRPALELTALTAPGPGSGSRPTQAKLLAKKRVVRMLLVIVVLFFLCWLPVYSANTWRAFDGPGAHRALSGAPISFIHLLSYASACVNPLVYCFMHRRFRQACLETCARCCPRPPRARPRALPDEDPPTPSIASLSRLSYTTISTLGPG
# Cavia porcellus [3] = species: Cavia porcellus; assay: Compound was tested for agonist activity of isolated guinea pig gallbladder by using functional assay; settings: read-out: ED50 (the source's name)
# Cavia porcellus [4] = species: Cavia porcellus; assay: Relative efficacy determined as maximal contraction was observed at 30 uM standardized to CCK-8; type: functional
# Cavia porcellus [5] = species: Cavia porcellus; assay: Relative efficacy as determined maximal contraction was observed at 30 uM standardized to CCK-8; type: functional
# Mus musculus [6] = assay: Effective dose against mouse gall bladder emptying when administered intraperitoneally; type: functional; settings: ip
# Mus musculus [7] = assay: In vivo percent emptying of mouse gallbladder when administered intraperitoneally; type: functional
# [8] = molecular target: T2, Cholecystokinin receptor type A (Homo sapiens, UniProt P32238); assay: Binding affinity against human Cholecystokinin type A receptor by displacement of [125I]CCK-8
# T2 sequence (P32238 whole entry): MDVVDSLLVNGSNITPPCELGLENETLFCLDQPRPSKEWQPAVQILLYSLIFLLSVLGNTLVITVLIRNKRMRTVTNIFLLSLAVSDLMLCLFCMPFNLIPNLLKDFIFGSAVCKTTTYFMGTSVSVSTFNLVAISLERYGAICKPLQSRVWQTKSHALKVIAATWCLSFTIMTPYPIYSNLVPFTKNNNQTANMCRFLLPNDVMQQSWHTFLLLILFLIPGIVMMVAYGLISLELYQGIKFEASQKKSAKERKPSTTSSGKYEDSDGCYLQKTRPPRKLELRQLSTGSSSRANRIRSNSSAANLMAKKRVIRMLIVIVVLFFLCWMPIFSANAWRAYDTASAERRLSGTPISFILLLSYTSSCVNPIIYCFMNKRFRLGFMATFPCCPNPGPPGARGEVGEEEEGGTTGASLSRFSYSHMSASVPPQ
# Mus musculus [9] = assay: In vivo percent emptying of mouse gallbladder when administered orally; type: functional
# Mus musculus [10] = assay: Effective dose against mouse gall bladder emptying when administered orally; type: functional; settings: po
# Mus musculus [11] = assay: Effective dose against mouse gallbladder emptying when administered orally; type: functional
# Mus musculus [12] = assay: Effective dose against mouse gallbladder emptying when administered intraperitoneally; type: functional
SMILES,Selectivity ratio [1],IC50 [2],EC50 (Cavia porcellus [3]),Max (Cavia porcellus [4]),IC50 [8],other results
COc1ccc(N(C(=O)CN2C(=O)C(C)(Cc3n[nH]c4ccccc34)C(=O)N(c3ccccc3)c3ccccc32)C(C)C)cc1 (stereo unspecified),5100,69.2 µM,320 nM,80%,,
CSCC[C@H](NC(=O)[C@H](Cc1ccc(OS(=O)(=O)O)cc1)NC(=O)[C@@H](N)CC(=O)O)C(=O)NCC(=O)N[C@@H](Cc1c[nH]c2ccccc12)C(=O)N[C@@H](CCSC)C(=O)N[C@@H](CC(=O)O)C(=O)N[C@@H](Cc1ccccc1)C(N)=O [SINCALIDE],,,2 nM,,,Max (Cavia porcellus [5]): 100%; ED50 (Mus musculus [6]): 3e-05 µmol/kg; Empty (Mus musculus [7]): <95%
COc1ccc(N(C(=O)CN2C(=O)C(Cc3nn(Cc4ccccc4)c4ccccc34)C(=O)N(c3ccccc3)c3ccccc32)C(C)C)cc1 (stereo unspecified),,100 µM,340 nM,,309 nM,Max (Cavia porcellus [5]): 40%
CC(C)N(C(=O)CN1C(=O)C(Cc2n[nH]c3ccccc23)C(=O)N(c2ccccc2)c2ccccc21)c1ccccc1 (stereo unspecified),2,0.178 µM,140 nM,90%,87.1 nM,
CC(C)N(C(=O)CN1C(=O)C(C)(Cc2n[nH]c3ccccc23)C(=O)N(c2ccccc2)c2ccccc21)c1ccccc1 (stereo unspecified),20,2.63 µM,20 nM,80%,120 nM,
CC(C)N(C(=O)CN1C(=O)C(C)(CC(=O)Nc2ccccc2)C(=O)N(c2ccccc2)c2ccccc21)c1ccccc1 (stereo unspecified),,,190 nM,,,Empty (Mus musculus [9]): <70%; ED50 (Mus musculus [10]): 1 µmol/kg; Max (Cavia porcellus [5]): 80%; ED50 (Mus musculus [6]): 0.03 µmol/kg; Empty (Mus musculus [7]): <70%
COc1ccc(N(C(=O)CN2C(=O)C(Cc3c[nH]c4ccccc34)C(=O)N(c3ccccc3)c3ccccc32)C(C)C)cc1 (stereo unspecified),480,5.25 µM,340 nM,70%,,
COc1ccc(N(C(=O)CN2C(=O)C(Cc3nn(C)c4ccccc34)C(=O)N(c3ccccc3)c3ccccc32)C(C)C)cc1 (stereo unspecified),60,2.4 µM,70 nM,90%,42.7 nM,
COc1ccc(N(C(=O)CN2C(=O)C(C)(Cc3c[nH]c4ccccc34)C(=O)N(c3ccccc3)c3ccccc32)C(C)C)cc1 (stereo unspecified),2090,17.4 µM,530 nM,60%,,
CC(C)N(C(=O)CN1C(=O)C(C)(Cc2c[nH]c3ccccc23)C(=O)N(c2ccccc2)c2ccccc21)c1ccccc1 (stereo unspecified),,,470 nM,80%,107 nM,
COc1ccc(N(C(=O)CN2C(=O)C(Cc3n[nH]c4ccccc34)C(=O)N(c3ccccc3)c3ccccc32)C(C)C)cc1 (stereo unspecified),50,,109 nM,100%,,ED50 (Mus musculus [11]): 8 nM·kg; Activity (Mus musculus [9]): <90%; Activity (Mus musculus [7]): <90%; ED50 (Mus musculus [12]): 0.2 nM·kg
